Source: patent US20250215029A1 (Recludix Pharma, Inc., priority 2022, published 2025)
pIC50: −log10 of the molar value.

Biological target: T1, pY641-STAT6 in PBMC (Homo sapiens, UniProt P42226)
T1 construct: Cryopreserved Peripheral Blood Mononuclear Cells (PBMC) are from AllCells; host or cells: cryopreserved PBMC
T1 sequence (P42226 1-847): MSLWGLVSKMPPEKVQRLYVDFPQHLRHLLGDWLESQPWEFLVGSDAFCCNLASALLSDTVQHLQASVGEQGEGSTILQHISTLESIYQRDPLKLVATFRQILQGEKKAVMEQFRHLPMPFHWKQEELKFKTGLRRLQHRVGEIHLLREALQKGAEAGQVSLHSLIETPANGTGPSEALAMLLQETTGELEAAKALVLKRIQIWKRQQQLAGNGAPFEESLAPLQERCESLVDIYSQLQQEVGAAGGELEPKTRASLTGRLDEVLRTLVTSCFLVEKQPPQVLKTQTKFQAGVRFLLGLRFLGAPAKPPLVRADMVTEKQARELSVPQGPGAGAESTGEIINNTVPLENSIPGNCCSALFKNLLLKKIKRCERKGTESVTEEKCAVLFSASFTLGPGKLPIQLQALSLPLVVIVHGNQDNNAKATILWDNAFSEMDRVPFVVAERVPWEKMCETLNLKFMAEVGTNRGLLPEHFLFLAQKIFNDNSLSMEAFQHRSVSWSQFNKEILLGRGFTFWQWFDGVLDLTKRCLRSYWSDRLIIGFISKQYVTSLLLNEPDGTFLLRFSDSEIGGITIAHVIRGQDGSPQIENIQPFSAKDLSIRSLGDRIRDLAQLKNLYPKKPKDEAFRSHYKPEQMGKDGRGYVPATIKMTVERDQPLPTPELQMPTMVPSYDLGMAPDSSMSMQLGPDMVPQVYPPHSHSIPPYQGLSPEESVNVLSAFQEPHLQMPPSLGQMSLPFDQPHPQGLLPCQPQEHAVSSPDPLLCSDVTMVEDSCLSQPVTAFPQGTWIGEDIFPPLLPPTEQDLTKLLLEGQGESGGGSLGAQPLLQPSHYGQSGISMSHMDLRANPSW
Test: MSD-pSTAT-PBMC Assay (pSTAT6, IL-4 stimulated)
Type: cell-based
Details: PBMC, compound 3 hrs, then 1 ng/mL IL-4 for 10 min; Table 115; read-out: STAT6
Source text: Cryopreserved Peripheral Blood Mononuclear Cells (PBMC) are from AllCells. Recombinant Human IL-4 and IL-6 are from Peprotech. Mouse monoclonal anti-STAT3 antibody, rabbit monoclonal anti-pY705-STAT3 antibody, rabbit monoclonal Anti-pY641-STAT6 antibody, and lysis buffer are from Cell Signaling Technology (CST). Mouse monoclonal anti-STAT6 antibody is from BioLegend. Assay plates, blocker, and anti-rabbit secondary antibody are from Meso Scale Discovery (MSD).
Cyropreserved PBMCs were thawed out and allowed to recover overnight in IMDM+10% heat-inactivated FBS prior to plating 50,000 (STAT3) or 25,000 (STAT6) cells per well in 96-well U-bottom tissue culture plates. Cells were treated with compound for 3 hrs, then stimulated with 10 ng/mL IL-6 (STAT3) or 1 ng/mL IL-4 (STAT6) for 10 min. Cells were then spun down and washed with ice-cold PBS prior to lysing the cell pellet with 1× lysis buffer (CST) with 1× HALT protease and phosphatase inhibitor cocktail (Thermo). Lysates were transferred to and incubated overnight at 4° C. with shaking in QuickPlex 96-well high bind assay plates (MSD) pre-coated overnight with 30 μL per well of 0.6 μg/mL mouse monoclonal anti-STAT3 antibody (STAT3) or 2 μg/mL mouse monoclonal anti-STAT6 antibody (STAT6) in 1× PBS, and pre-blocked for 1 hour with 3% Blocker-A (MSD). Captured protein in the assay plates were then washed and probed with 25 μL per well of […] rabbit monoclonal anti-pY705-STAT3 antibody (STAT3) or 0.18 μg/ml rabbit monoclonal Anti-pY641-STAT6 antibody (STAT6) in 1% Blocker-A for 1 hour at room temperature with shaking, then washed and probed with 25 ul per well of 1 ug/ml Sulfo-TAG Labeled Goat Anti-Rabbit Antibody (MSD) in 1% Blocker-A for 1 hour at room temperature with shaking. Assay plates were then washed and 150 μL of 1× Read Buffer-T (MSD) was added to each well prior to reading on an SQ120 MSD Plate Reader. Assay signal from each sample was subtracted by the signal from unstimulated control wells and normalized to DMSO control wells. IC50 values were calculated using Graph Pad Prism Dose-Response Nonlinear Regression with variable slope. For both pSTAT3 and pSTAT6 A=≤100 nM; B 100-1000 nM; C=>1000-3000 nM; D=>3 μM; and NT=Not Tested.

Row | SMILES | pIC50
1 | CCCOC(=O)[C@H](C)NP(=O)(Oc1ccccc1)[C@@H](F)c1ccc2sc(C(=O)N[C@H]3CCCC[C@H]4CC[C@@H](C(=O)N5C[C@H](c6cccc(Cl)c6)[C@@H](C#N)C56CC6)N4C3=O)cc2c1 (stereo partly shown) [Compound 344] | > 7.00

Same assay, conditions: STAT6, PBMC, compound 3 hrs, then 1 ng/mL IL-4 for 10 min; Table 115

Row | SMILES | pIC50
2 | CCCOC(=O)[C@H](C)NP(=O)(Oc1ccccc1)[C@@H](F)c1ccc2sc(C(=O)N[C@H]3CCCC[C@H]4CC[C@@H](C(=O)N5C(=O)N(c6cncc(C)c6)C(=O)C56CC6)N4C3=O)cc2c1 (stereo partly drawn) [Compound 303, propyl (((R)-fluoro(2-(((3S,6S,10aS)-3-(6-(5-methylpyridin-3-yl)-5,7-dioxo-4,6-diazaspiro [2.4]heptane-4-carbonyl)-5-oxodecahydropyrrolo [1,2-a]azocin-6-yl)carbamoyl)benzo [b]thiophen-5-yl)methyl)(phenoxy)phosphoryl)-L-alaninate] | 6.00 to 7.00
3 | CCCOC(=O)[C@H](C)NP(=O)(Cc1ccc2ccc(C(=O)N[C@H]3CCCC[C@H]4CC[C@@H](C(=O)N5CCC(c6cccnc6)C5)N4C3=O)cc2c1)Oc1ccccc1 (stereo partly drawn) [Compound 305, propyl (((7-(((3S,6S,10aS)-5-oxo-3-(3-(pyridin-3-yl)pyrrolidine-1-carbonyl)decahydropyrrolo[1,2-a]azocin-6-yl)carbamoyl)naphthalen-2-yl)methyl)(phenoxy)phosphoryl)-L-alaninate] | 6.00 to 7.00
4 | CCCOC(=O)[C@H](C)NP(=O)(Oc1ccccc1)C(F)(F)c1ccc2ccc(C(=O)N[C@H]3CCCC[C@H]4CC[C@@H](C(=O)N5CCC(c6cccnc6)C5)N4C3=O)cc2c1 (stereo partly drawn) [Compound 312, propyl ((difluoro(7-(((3S,6S,10aS)-5-oxo-3-(3-(pyridin-3-yl)pyrrolidine-1-carbonyl)decahydropyrrolo[1,2-a]azocin-6-yl)carbamoyl)naphthalen-2-yl)methyl)(phenoxy)phosphoryl)-L-alaninate] | < 5.52
5 | CCCOC(=O)[C@H](C)NP(=O)(Oc1ccccc1)C(C)(F)c1ccc2sc(C(=O)N[C@H]3CCCC[C@H]4CC[C@@H](C(=O)N5CCC(c6cccnc6)C5)N4C3=O)cc2c1 (stereo partly drawn) [Compound 314, propyl ((1-fluoro-1-(2-(((3S,6S,10aS)-5-oxo-3-(3-(pyridin-3-yl)pyrrolidine-1-carbonyl)decahydropyrrolo[1,2-a]azocin-6-yl)carbamoyl)benzo [b]thiophen-5-yl)ethyl)(phenoxy)phosphoryl)-L-alaninate] | < 5.52
6 | CCCOC(=O)[C@H](C)NP(=O)(Oc1ccccc1)[C@@H](F)c1ccc2sc(C(=O)N[C@H]3CCCC[C@H]4CC[C@@H](C(=O)N5C(=O)N(c6ccc(C(F)(F)F)nc6)C(=O)C56CC6)N4C3=O)cc2c1 (stereo partly drawn) [Compound 327, propyl (((R)-(2-(((3S,6S,10aS)-3-(5,7-dioxo-6-(6-(trifluoromethyl)pyridin-3-yl)-4,6-diazaspiro[2.4]heptane-4-carbonyl)-5-oxodecahydropyrrolo [1,2-a]azocin-6-yl)carbamoyl)benzo [b]thiophen-5-yl)fluoromethyl) (phenoxy)phosphoryl)-L-alaninate] | < 5.52
7 | CCCOC(=O)[C@H](C)NP(=O)(Oc1ccccc1)[C@@H](F)c1ccc2sc(C(=O)N[C@H]3CCCC[C@H]4CC[C@@H](C(=O)N5C(=O)N(c6ccc(C)nc6)C(=O)C56CC6)N4C3=O)cc2c1 (stereo partly drawn) [Compound 328, propyl (((R)-fluoro(2-(((3S,6S,10aS)-3-(6-(6-methylpyridin-3-yl)-5,7-dioxo-4,6-diazaspiro[2.4]heptane-4-carbonyl)-5-oxodecahydropyrrolo [1,2-a]azocin-6-yl)carbamoyl)benzo [b]thiophen-5-yl)methyl)(phenoxy)phosphoryl)-L-alaninate] | 6.00 to 7.00
8 | CCCOC(=O)[C@H](C)NP(=O)(Oc1ccccc1)[C@@H](F)c1ccc2sc(C(=O)N[C@H]3CCCC[C@H]4CC[C@@H](C(=O)N5C(=O)N(c6ccc(OC)nc6)C(=O)C56CC6)N4C3=O)cc2c1 (stereo partly drawn) [Compound 329, propyl (((R)-fluoro(2-(((3S,6S,10aS)-3-(6-(6-methoxypyridin-3-yl)-5,7-dioxo-4,6-diazaspiro[2.4]heptane-4-carbonyl)-5-oxodecahydropyrrolo [1,2-a]azocin-6-yl)carbamoyl)benzo [b]thiophen-5-yl)methyl)(phenoxy)phosphoryl)-L-alaninate] | < 5.52
9 | CCCOC(=O)[C@H](C)NP(=O)(Oc1ccccc1)[C@@H](F)c1ccc2sc(C(=O)N[C@H]3CCCC[C@H]4CC[C@@H](C(=O)N5C(=O)N(c6cncc(C(F)(F)F)c6)C(=O)C56CC6)N4C3=O)cc2c1 (stereo partly drawn) [Compound 330, propyl (((R)-(2-(((3S,6S,10aS)-3-(5,7-dioxo-6-(5-(trifluoromethyl)pyridin-3-yl)-4,6-diazaspiro[2.4]heptane-4-carbonyl)-5-oxodecahydropyrrolo [1,2-a]azocin-6-yl)carbamoyl)benzo [b]thiophen-5-yl)fluoromethyl) (phenoxy)phosphoryl)-L-alaninate] | < 5.52
10 | CCCOC(=O)[C@H](C)NP(=O)(Oc1ccccc1)[C@@H](F)c1ccc2sc(C(=O)N[C@H]3CCCC[C@H]4CC[C@@H](C(=O)N5C(=O)N(c6cncc(OC)c6)C(=O)C56CC6)N4C3=O)cc2c1 (stereo partly drawn) [Compound 331, propyl (((R)-fluoro(2-(((3S,6S,10aS)-3-(6-(5-methoxypyridin-3-yl)-5,7-dioxo-4,6-diazaspiro[2.4]heptane-4-carbonyl)-5-oxodecahydropyrrolo [1,2-a]azocin-6-yl)carbamoyl)benzo [b]thiophen-5-yl)methyl)(phenoxy)phosphoryl)-L-alaninate] | 5.52 to 6.00
11 | CCCOC(=O)[C@H](C)NP(=O)(Oc1ccccc1)[C@@H](F)c1ccc2sc(C(=O)N[C@H]3CCCC[C@H]4CC[C@@H](C(=O)N5C(=O)N(c6ccc(C(F)F)nc6)C(=O)C56CC6)N4C3=O)cc2c1 (stereo partly drawn) [Compound 332, propyl (((R)-(2-(((3S,6S,10aS)-3-(6-(6-(difluoromethyl)pyridin-3-yl)-5,7-dioxo-4,6-diazaspiro[2.4]heptane-4-carbonyl)-5-oxodecahydropyrrolo [1,2-a]azocin-6-yl)carbamoyl)benzo [b]thiophen-5-yl)fluoromethyl) (phenoxy)phosphoryl)-L-alaninate] | < 5.52
12 | CCCOC(=O)[C@H](C)NP(=O)(Oc1ccccc1)[C@@H](F)c1ccc2sc(C(=O)N[C@H]3CCCC[C@H]4CC[C@@H](C(=O)N5C(=O)N(c6cncc(C(F)F)c6)C(=O)C56CC6)N4C3=O)cc2c1 (stereo partly drawn) [Compound 333, propyl (((R)-(2-(((3S,6S,10aS)-3-(6-(5-(difluoromethyl)pyridin-3-yl)-5,7-dioxo-4,6-diazaspiro[2.4]heptane-4-carbonyl)-5-oxodecahydropyrrolo [1,2-a]azocin-6-yl)carbamoyl)benzo [b]thiophen-5-yl)fluoromethyl) (phenoxy)phosphoryl)-L-alaninate] | < 5.52
13 | CCCOC(=O)[C@H](C)NP(=O)(Oc1ccccc1)[C@@H](F)c1ccc2sc(C(=O)N[C@H]3CCCC[C@H]4CC[C@@H](C(=O)N5C(=O)N(c6cnccc6C)C(=O)C56CC6)N4C3=O)cc2c1 (stereo partly drawn) [Compound 334, propyl (((R)-fluoro(2-(((3S,6S,10aS)-3-(6-(4-methylpyridin-3-yl)-5,7-dioxo-4,6-diazaspiro[2.4]heptane-4-carbonyl)-5-oxodecahydropyrrolo [1,2-a]azocin-6-yl)carbamoyl)benzo [b]thiophen-5-yl)methyl)(phenoxy)phosphoryl)-L-alaninate] | > 7.00
